For 36 compounds, IC50 results are on record in patent publication US11992494B2, “Cyclopentathiophene carboxamide derivatives as platelet activating factor receptor antagonists” (Boehringer Ingelheim International GmbH, priority 2021, dated 2024).

As usually defined, the IC50 is the point on the concentration scale where inhibition reaches its midpoint. Read a low IC50 as greater potency in that assay.

The test deals with PAFR (Homo sapiens, UniProt P25105). Kind of test: cellular HTRF IP1 assay: inhibition of PAFR activation by PAF C-16 ligand (endpoint assay). It counts as cell-based. The arrangement: expressed in transfected cells; host or cells: HEK293. The method, then:
The ability of compounds of formula (I) to inhibit the activation of the PAF receptor (PAFR) by the PAF C-16 ligand (PAF) is determined using the following cellular HTRF IP1 assay (IP1 Gq assay kit from Cisbio, Cat. no.: 62IP1APEJ) in assay buffer (1×HBSS, 20 mM Hepes, pH 7.4, 50 mM LiCl and containing 0.1% (w/v) BSA):
Evaluation of the Inhibition of PAFR Activation Using an Endpoint Assay
HEK293 cells overexpressing human PAFR (produced in-house) are seeded into a Poly-D-Lysine coated 384 well white cell culture microtiter assay plate with lid (15.000 cells per well). Subsequently, the plates are incubated over night at 37° C./5% CO2. On the next day, cells are being washed and subsequently, various concentrations of the test compounds (compounds in 100% DMSO; final concentration of DMSO in wells is 1%) are added to the assay plate via Echo 555 acoustic liquid handler. Plates are then incubated with lid for 90 minutes at 37° C./5% CO2. Thereafter, PAF ligand (Cayman Chemical Company, Item no.: 60900) is added at a final concentration of 11 nM. Plates are then incubated with lid for 60 minutes at 37° C./5% CO2. Then, 5 μl per well of Anti-IP1-Antibody-Cryptate solution and 5 μl per well of IP1-d2 solution are added to all wells of the plate and the plate is incubated for another 60 minutes light protected at room temperature. The emissions at 620 nm and 665 nm (Excitation wavelength: 320 nm) are measured using an Envision Reader (PerkinElmer).
(In TR-FRET formats the signal depends on donor and acceptor labels being close together.)

Setting [1] is: dedicated head-to-head comparison assay run: cyclopropylene vs di-methyl / cyclobutylene analogues.
Where [2] appears, read: HEK293 cells overexpressing human PAFR, PAF ligand 11 nM, Table 2.
Setting [3] is: S-bepafant and its methylated derivatives in the above-mentioned assay.

Where only a bound is given, the exact number is not on record here.

PAFR, sequence (P25105 whole entry): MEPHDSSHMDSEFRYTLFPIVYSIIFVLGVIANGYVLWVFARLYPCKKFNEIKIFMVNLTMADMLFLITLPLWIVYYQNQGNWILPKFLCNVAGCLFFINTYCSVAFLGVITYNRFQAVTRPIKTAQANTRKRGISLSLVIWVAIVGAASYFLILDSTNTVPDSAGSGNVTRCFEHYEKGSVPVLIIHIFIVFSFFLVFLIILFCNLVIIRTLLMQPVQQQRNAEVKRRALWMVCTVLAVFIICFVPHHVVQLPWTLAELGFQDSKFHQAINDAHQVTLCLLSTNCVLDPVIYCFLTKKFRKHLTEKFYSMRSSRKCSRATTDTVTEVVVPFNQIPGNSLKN

Compound `Cc1nnc2n1-c1sc3c(c1C(c1ccccc1Cl)=NC2(C)C)C[C@H](C(=O)N1CCOCC1)C3` [comparative example 1, reference compound] gave an IC50 under setting [1] of 89 nM.

With `CCCN(C(=O)[C@@H]1Cc2sc3c(c2C1)C(c1ccccc1Cl)=NC1(CC1)c1nnc(C)n1-3)C1CCOCC1` [Example 115, (13′S)-9′-(2-chlorophenyl)-3′-methyl-N-(oxan-4-yl)-N-propyl-16′-thia-2′,4′,5′,8′-tetraazaspiro-[cyclopropane-1,7′-tetracyclo[8.6.0.0^2,6.0^11,15]hexadecane]-1′(10′),3′,5′,8′,11′(15′)-pentaene-13′-carboxamide], the IC50 under setting [2] amounted to 25 nM.

Under setting [2], `Cc1nnc2n1-c1sc3c(c1C(c1ccccc1Cl)=NC21CC1)C[C@H](C(=O)N[C@H]1CCc2ccccc2C1)C3` [Example 58] had an IC50 of 0.4 nM.

As to `Cc1nnc2n1-c1sc3c(c1C(c1ccccc1Cl)=NC21CC1)C[C@H](C(=O)N[C@H]1CC[C@H](C(F)(F)F)CC1)C3` [Example 15], the IC50 under setting [2] amounted to 1 nM.

Take `Cc1nnc2n1-c1sc3c(c1C(c1ccccc1Cl)=NC21CC1)C[C@H](C(=O)NC1CCC(C)(C)OC1)C3` (some centres unmarked) [Example 94]: half-maximal inhibition under setting [2] (IC50) required 6.4 nM.

`Cc1nnc2n1-c1sc3c(c1C(c1ccccc1Cl)=NC21CC1)C[C@H](C(=O)NC1CCC1(C)C)C3` (some centres unmarked) [Example 47] came in with an IC50 under setting [2] of 1.6 nM.

Compound `CCCNC(=O)[C@@H]1Cc2sc3c(c2C1)C(c1ccccc1Cl)=NC(C)(C)c1nnc(C)n1-3` [reference compound] returned an IC50 under setting [1] of 29 nM.

As to `Cc1nnc2n1-c1sc3c(c1C(c1ccccc1Cl)=NC21CC1)C[C@H](C(=O)N1C[C@H](C)O[C@@H](C)C1)C3` [Example 108, (13′S)-9′-(2-chlorophenyl)-13′-[(2S,6S)-2,6-dimethylmorpholine-4-carbonyl]-3′-methyl-16′-thia-2′,4′,5′,8′-tetraazaspiro[cyclopropane-1,7′-tetracyclo[8.6.0.0^2,6.0^11,15]hexadecane]-1′(10′),3′,5′,8′,11′(15′)-pentaene], the IC50 under setting [2] stood at 4.6 nM.

`Cc1nnc2n1-c1sc3c(c1C(c1ccccc1Cl)=NC21CC1)C[C@H](C(=O)N[C@@H]1CCc2cc(C#N)ccc21)C3` [Example 63] came in with an IC50 under setting [2] of 1.7 nM.

`Cc1nnc2n1-c1sc3c(c1C(c1ccccc1Cl)=NC21CC1)C[C@H](C(=O)N1CCO[C@@H](C)C1)C3` [Example 106, (13′S)-9′-(2-chlorophenyl)-3′-methyl-13′-[(2S)-2-methylmorpholine-4-carbonyl]-16′-thia-2′,4′,5′,8′-tetraazaspiro[cyclopropane-1,7′-tetracyclo-[8.6.0.0^2,6.0^11,15]hexadecane}-1′(10′),3′,5′,8′,11′(15′)-pentaene] showed an IC50 under setting [2] of 7.5 nM.

Under setting [2], `Cc1nnc2n1-c1sc3c(c1C(c1ccccc1Cl)=NC21CC1)C[C@H](C(=O)NC1CC2(CCC2)C1)C3` [Example 80] displayed an IC50 of 2 nM.

With `Cc1nnc2n1-c1sc3c(c1C(c1ccccc1Cl)=NC21CC1)C[C@H](C(=O)N[C@H]1COC[C@H]1c1ccccc1)C3` [Example 39], under setting [2], the IC50 came to 3.1 nM.

As to `Cc1nnc2n1-c1sc3c(c1C(c1ccccc1Cl)=NC21CC1)C[C@H](C(=O)N[C@H]1CC[C@@H](F)CC1)C3` [Example 36], 3.5 nM corresponded to half-maximal inhibition under setting [2] (IC50).

Under setting [3], `Cc1nnc2n1-c1sc3c(c1C(c1ccccc1Cl)=N[C@@H]2C)C[C@H](C(=O)N1CCOCC1)C3` [comparative example 1b, reference compound] came in with an IC50 of more than 1000 nM.

In turn, `Cc1nnc2n1-c1sc3c(c1C(c1ccccc1Cl)=NC21CC1)C[C@H](C(=O)N[C@H]1CCc2c(F)cccc21)C3` [Example 92] had an IC50 under setting [2] of 0.9 nM.

As for `Cc1nnc2n1-c1sc3c(c1C(c1ccccc1Cl)=NC21CC1)C[C@H](C(=O)NC1COc2ccccc21)C3` (some centres unmarked) [Example 55], under setting [2], the IC50 came out at 1.4 nM.

`Cc1nnc2n1-c1sc3c(c1C(c1ccccc1Cl)=N[C@H]2C)C[C@H](C(=O)N1CCOCC1)C3` [comparative example 1a, reference compound] displayed an IC50 under setting [3] of 6.9 nM.

On to `Cc1nnc2n1-c1sc3c(c1C(c1ccccc1Cl)=NC21CC1)C[C@H](C(=O)N[C@H]1COCC(F)(F)C1)C3` [Example 116], for which the IC50 under setting [2] was found to be 3.9 nM.

As for `CCN(C(=O)[C@@H]1Cc2sc3c(c2C1)C(c1ccccc1Cl)=NC1(CC1)c1nnc(C)n1-3)C1CCOCC1` [Example 83], the IC50 under setting [2] amounted to 6.9 nM.

`CO[C@@H]1CCCCC1N(C)C(=O)[C@@H]1Cc2sc3c(c2C1)C(c1ccccc1Cl)=NC1(CC1)c1nnc(C)n1-3` (some centres unmarked) [Example 84]: the IC50 under setting [2] worked out at 2.3 nM.

Under setting [2], `Cc1nnc2n1-c1sc3c(c1C(c1ccccc1O)=NC21CC1)C[C@H](C(=O)N1CCOCC1)C3` [Example 9, 2-[(13′S)-3′-methyl-13′-(morpholine-4-carbonyl)-16′-thia-2′,4′,5′,8′-tetraazaspiro[cyclopropane-1,7′-tetracyclo[8.6.0.0^2,6.0^11,15]hexadecane]-1′(10′),3′,5′,8′,11′(15′)-pentaen-9′-yl]phenol] yielded an IC50 of 52 nM.

For the compound `Cc1nnc2n1-c1sc3c(c1C(c1cc(C#N)ccc1Cl)=NC21CC1)C[C@H](C(=O)N1CCOCC1)C3` [Example 2, 4-chloro-3-[(13′S)-3′-methyl-13′-(morpholine-4-carbonyl)-16′-thia-2′,4′,5′,8′-tetraazaspiro[cyclopropane-1,7′-tetracyclo[8.6.0.0^2,6.0^11,15]hexadecane]-1′(10′),3′,5′,8′,11′(15′)-pentaen-9′-yl]benzonitrile], under setting [2], the IC50 came to 83 nM.

On to `Cc1nnc2n1-c1sc3c(c1C(c1ccccc1Cl)=NC21CC1)C[C@H](C(=O)NC1CCOC(C)(C)C1)C3` (some centres unmarked) [Example 33], for which the midpoint of inhibition under setting [2], the IC50, lay at 11 nM.

Consider `Cc1nnc2n1-c1sc3c(c1C(c1cc(Br)ccc1Cl)=NC21CC1)C[C@H](C(=O)N1CCOCC1)C3` [Example 4, (13′S)-9′-(5-bromo-2-chlorophenyl)-3′-methyl-13′-(morpholine-4-carbonyl)-16′-thia-2′,4′,5′,8′-tetraazaspiro[cyclopropane-1,7′-tetracyclo[8.6.0.0^2,6.0^11,15]hexadecane]-1′(10′)3′,5′,8′,11′(15′)-pentaene], for which half-maximal inhibition under setting [2] (IC50) was put at 26 nM.

As to `Cc1nnc2n1-c1sc3c(c1C(c1ccccc1Cl)=NC21CC1)C[C@H](C(=O)NC1(c2cccc(F)c2)CC1)C3` [Example 56], inhibition under setting [2] was half-maximal at 1.1 nM (IC50).

In turn, `Cc1noc(C)c1NC(=O)[C@@H]1Cc2sc3c(c2C1)C(c1ccccc1Cl)=NC(C)(C)c1nnc(C)n1-3` [reference compound] returned an IC50 under setting [1] of 39 nM.

Compound `CC[C@@H]1C[C@H]2O[C@@H]1C[C@H]2NC(=O)[C@@H]1Cc2sc3c(c2C1)C(c1ccccc1Cl)=NC1(CC1)c1nnc(C)n1-3` [Example 101] gave an IC50 under setting [2] of 6 nM.

Regarding `Cc1nnc2n1-c1sc3c(c1C(c1ccccc1Cl)=NC21CC1)C[C@H](C(=O)N(C)C1CCC(C)(C)CC1)C3` [Example 79], the IC50 under setting [2] amounted to 0.9 nM.

`Cc1nnc2n1-c1sc3c(c1C(c1ccccc1Cl)=NC21CC1)C[C@H](C(=O)NC1CCC1)C3` [Example 7, (13′S)-9′-(2-chlorophenyl)-N-cyclobutyl-3′-methyl-16′-thia-2′,4′,5′,8′-tetraazaspiro-[cyclopropane-1,7′-tetracyclo[8.6.0.0^2,6.0^11,15]-hexadecane]-1′(10′),3′,5′,8′,11′(15′)-pentaene-13′-carboxamide] yielded an IC50 under setting [2] of 1.7 nM and an IC50 under setting [1] of 2 nM.

The compound `Cc1nnc2n1-c1sc3c(c1C(c1ccccc1Cl)=NC21CC1)C[C@H](C(=O)NC1(C)CCCC1)C3` [Example 26] came in with an IC50 under setting [2] of 1.3 nM.

Take `Cc1nnc2n1-c1sc3c(c1C(c1ccccc1Cl)=NC21CC1)C[C@H](C(=O)NC1CCCC1)C3` [Example 14]: the IC50 under setting [2] was 1.9 nM.

In turn, `Cc1nnc2n1-c1sc3c(c1C(c1ccccc1Cl)=NC21CC1)C[C@H](C(=O)NCCOC(F)(F)F)C3` [Example 67] gave an IC50 under setting [2] of 1.7 nM.

`Cc1nnc2n1-c1sc3c(c1C(c1ccccc1Cl)=NC21CC1)C[C@H](C(=O)N[C@@H](C)CF)C3` [Example 125] registered an IC50 under setting [2] of 5.8 nM.

Regarding `Cc1nnc2n1-c1sc3c(c1C(c1ccccc1Cl)=NC21CC1)C[C@H](C(=O)N[C@H]1CC[C@@H](F)C1)C3` [Example 70], under setting [2], the IC50 is 2.6 nM.

`Cc1nnc2n1-c1sc3c(c1C(c1ccccc1Cl)=NC21CC1)C[C@H](C(=O)N(C)[C@H]1CCN(S(C)(=O)=O)C1)C3` [Example 111, (13′S)-9′-(2-chlorophenyl)-N-[(3S)-1-methanesulfonylpyrrolidin-3-yl]-N,3′-dimethyl-16′-thia-2′,4′,5′,8′-tetraazaspiro[cyclopropane-1,7′-tetracyclo[8.6.0.0^2,^6.0^11,15]hexadecane]-1′(10′),3′,5′,8′,11′(15′)-pentaene-13′-carboxamide] showed an IC50 under setting [2] of 24 nM.

Turning to `Cc1nnc2n1-c1sc3c(c1C(c1ccccc1Cl)=NC21CC1)C[C@H](C(=O)NC1CCOCC1)C3` [Example 51], the IC50 runs as follows: under setting [2], 12 nM; under setting [1], 9.7 nM.
